Article PMC8808171, “Nonselective TRPC channel inhibition and suppression of aminoglycoside-induced premature termination codon readthrough by the small molecule AC1903” (The Journal of Biological Chemistry, 2022)

Molecular target: T1, TRPC4:C4 (Homo sapiens, UniProt Q9UBN4)
T1 construct: expressed in transfected cells; host or cells: HEK T-REx (tetracycline-induced)
T1 sequence (Q9UBN4 1-893 isoform Q9UBN4-2): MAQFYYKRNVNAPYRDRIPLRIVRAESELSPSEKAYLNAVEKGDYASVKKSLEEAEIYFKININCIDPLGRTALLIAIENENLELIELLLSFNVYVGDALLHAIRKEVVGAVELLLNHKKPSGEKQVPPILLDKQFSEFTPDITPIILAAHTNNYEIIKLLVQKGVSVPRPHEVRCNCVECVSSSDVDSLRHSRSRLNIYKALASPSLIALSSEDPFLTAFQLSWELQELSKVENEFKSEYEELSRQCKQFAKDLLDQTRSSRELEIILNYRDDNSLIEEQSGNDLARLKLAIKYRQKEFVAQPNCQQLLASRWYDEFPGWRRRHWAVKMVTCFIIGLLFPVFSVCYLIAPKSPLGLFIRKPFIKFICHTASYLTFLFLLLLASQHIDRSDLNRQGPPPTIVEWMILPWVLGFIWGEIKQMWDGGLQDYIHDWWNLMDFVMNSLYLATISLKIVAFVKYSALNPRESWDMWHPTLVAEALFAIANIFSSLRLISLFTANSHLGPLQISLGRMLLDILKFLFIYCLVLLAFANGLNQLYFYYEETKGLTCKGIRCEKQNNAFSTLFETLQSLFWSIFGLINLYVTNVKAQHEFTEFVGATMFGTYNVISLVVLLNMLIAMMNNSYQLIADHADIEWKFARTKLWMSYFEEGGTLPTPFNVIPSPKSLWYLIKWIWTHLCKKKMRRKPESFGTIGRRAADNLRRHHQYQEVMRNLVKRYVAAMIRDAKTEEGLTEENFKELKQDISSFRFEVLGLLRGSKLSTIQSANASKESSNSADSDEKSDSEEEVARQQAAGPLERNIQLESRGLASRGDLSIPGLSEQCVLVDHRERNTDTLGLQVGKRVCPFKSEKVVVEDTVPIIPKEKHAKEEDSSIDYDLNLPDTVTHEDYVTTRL
Assay: [Ca2+]i recordings (Fura-2), TRPC4:C4 in HEK T-REx cells
Format: cell-based
Settings: for IC50: HEK T-REx
Protocol: Based on the findings described above, we wondered whether AC1903—which is typically used as a TRPC5 inhibitor at concentrations of 30–100 μM in cellular assays ([29], [56])—might have limited selectivity for TRPC5 channels and whether its effect on intracellular G418 levels and PTC readthrough might be the consequence of inhibition of other or multiple targets. All well-characterized TRPC channel inhibitors reported to date modulate multiple TRP(C) channels ([34], [35], [36]). […] Because limited data for the selectivity of AC1903 are available in the public domain, we decided to profile AC1903 against a selection of calcium-permeable cation channels by intracellular calcium ([Ca^2+]i) recordings using well-characterized cell lines and TRP channel activators ([46], [57], [58]), and the Ca^2+ indicator Fura-2. In these assays, cells (HEK 293, HEK T-REx, or CHO) overexpressing the relevant ion channel protein and loaded with Fura-2 AM (a cell-permeable precursor of Fura-2) were preincubated with various concentrations of AC1903 or vehicle (DMSO) for 30 min. Then, changes in ratiometric fluorescence (from background) were recorded upon addition of the respective ion channel activator.
Figure 4 AC1903 inhibits multiple TRP channels.A and C, representative [Ca^2+]i measurements from a single 96-well plate (N = 6; mean ± SD over technical replicates) showing inhibition of EA-mediated [Ca^2+]i responses by 0.1 to 100 μM AC1903 in (Tet+) HEK T-REx cells expressing TRPC5 (A) or TRPC4 (C). B and D, concentration–response data for experiments in (A) and (C) (scatter plots showing normalized data for three independent experiments; n/N = 3/18). Responses were calculated at 250 to 295 s compared to [Ca^2+]i at baseline (0–55 s). E and G, representative [Ca^2+]i measurements from a single 96-well plate (N = 6; mean ± SD over technical replicates) showing inhibition of OAG-mediated [Ca^2+]i responses by 0.1 to 100 μM AC1903 in (Tet+) HEK T-REx cells expressing TRPC3 (E) and WT HEK 293 cells transiently expressing TRPC6 (G). F and H, concentration–response data for experiments in (E) and (G) (scatter plots showing normalized data for three independent experiments; n/N = 3/18). Responses were calculated at 90 to 110 s compared with [Ca^2+]i at baseline (0–55 s). I, representative [Ca^2+]i measurements from a single 96-well plate (N = 6; mean ± SD over technical replicates) showing inhibition of the 4α-PDD-mediated [Ca^2+]i response by 0.1 to 100 μM AC1903 in CHO cells stably expressing TRPV4. J, concentration–response data for experiments in (I) (scatter plot showing normalized data for three independent experiments; n/N = 3/18). Responses were calculated at 290 to 300 s compared with [Ca^2+]i baseline (0–55 s). EA, (-)-englerin A; TRPC, transient receptor potential canonical. […]

IC50 (activator EA (30 nM)): 2100 nM
IC50 (activator S1P (10 μM)): 1800 nM
Hill slope (activator EA (30 nM)): -1.7
Hill slope (activator S1P (10 μM)): -1.9
SMILES: c1ccc(Cn2c(NCc3ccco3)nc3ccccc32)cc1 [AC1903]
